How the values were obtained:
Assay type in all cases: in vivo
[1] = test system: Echinochloa crus-galli; assay: Paddy herbicidal activity test; settings: irrigated paddy pot, treated at 3.5 leaf stage of Echinochloa crus-galli, 30 days
Protocol: (§1) Rice paddy soil was filled into a 1/10000 are pot followed by the addition of suitable amounts of water and chemical fertilizer, kneading, seeding with Echinochloa crus-galli, Monochoria vaginalis and Scirpus juncoides and maintaining in an irrigated state at a water depth of 3 cm.
(§2) Wettable powder of Target Compound (I) shown in Table 1 prepared in compliance with the preparation examples were diluted with a suitable amount of water, rice plants in the 2.0 leaf stage were transplanted during 3.5 leaf stage of Echinochloa crus-galli, and treated by dropping in chemical in the prescribed amount per are using a pipette.
(§3) After treating for 30 days in a glass greenhouse at an average atmospheric temperature of 30° C., the herbicidal efficacy thereof was investigated.
(§4) Evaluation of herbicidal efficacy was carried out by comparing growth inhibition rate (%) with an untreated group, while evaluation of phytotoxicity was carried out by comparing growth inhibition rate (%) with the state of a complete eradication group, and were evaluated at 11 levels indicated below.

[2] = test system: Monochoria vaginalis; assay: Paddy herbicidal activity test; settings: irrigated paddy pot, 30 days
Protocol: as §1, §2, §3, §4

[3] = test system: Scirpus juncoides; assay: Paddy herbicidal activity test; settings: irrigated paddy pot, 30 days
Protocol: as §1, §2, §3, §4

[4] = test system: Rice plants; assay: Paddy herbicidal activity test, phytotoxicity to transplanted rice; settings: rice transplanted at 2.0 leaf stage, 30 days
Protocol: as §1, §2, §3, §4

[5] = test system: Amaranthus retroflexus; assay: Farming soil treatment test; settings: soil surface spray prior to weed growth, 30 days
Protocol: (§5) Field soil was filled into a 1/6000 are pot followed by seeding with Digitaria ciliaris, Chenopodium album and Amaranthus retroflexus and covering with soil.
(§6) Wettable powder of Target Compound (I) shown in Table 1 prepared in compliance with the preparation examples were diluted with water to the prescribed amount of chemical and uniformly sprayed onto each soil surface layer using 10 liters of sprayed water per are prior to weed growth following seeding.
as §3
(§7) Evaluation of herbicidal efficacy was carried out in the same manner as the above-mentioned Test Example 1.

[6] = test system: Chenopodium album; assay: Farming soil treatment test; settings: soil surface spray prior to weed growth, 30 days
Protocol: as §5, §6, §3, §7

[7] = test system: Digitaria ciliaris; assay: Farming soil treatment test; settings: soil surface spray prior to weed growth, 30 days
Protocol: as §5, §6, §3, §7

[8] = test system: Amaranthus retroflexus; assay: Weed foliar treatment test; settings: foliar spray, 3 weeks
Protocol: (§8) Soil was filled into a 1/6000 are pot followed by seeding with Digitaria ciliaris, Chenopodium album and Amaranthus retroflexus, covering with soil, and cultivating in a glass greenhouse at an average atmospheric temperature of 25° C.
(§9) Wettable powder of Target Compound (I) shown in Table 1 prepared in compliance with the preparation examples were diluted with water to the prescribed amount of chemical and uniformly sprayed onto the weeds using 15 liters of sprayed water per are when Digitaria ciliaris had grown to the 1.0 to 2.0 leaf stage.
(§10) After treating for 3 weeks in a glass greenhouse at an average atmospheric temperature of 25° C., the herbicidal efficacy thereof was investigated.
as §7

[9] = test system: Chenopodium album; assay: Weed foliar treatment test; settings: foliar spray, 3 weeks
Protocol: as §8, §9, §10, §7

[10] = test system: Digitaria ciliaris; assay: Weed foliar treatment test; settings: foliar spray at 1.0 to 2.0 leaf stage of Digitaria ciliaris, 3 weeks
Protocol: as §8, §9, §10, §7

| Compound | herbicidal efficacy (growth inhibition level) Echinochloa crus-galli ([1]; 1 g a.i./10 a) | herbicidal efficacy (growth inhibition level) Echinochloa crus-galli ([1]; 5 g a.i./10 a) | herbicidal efficacy (growth inhibition level) Monochoria vaginalis ([2]; 1 g a.i./10 a) | herbicidal efficacy (growth inhibition level) Monochoria vaginalis ([2]; 5 g a.i./10 a) | herbicidal efficacy (growth inhibition level) Scirpus juncoides ([3]; 1 g a.i./10 a) | herbicidal efficacy (growth inhibition level) Scirpus juncoides ([3]; 5 g a.i./10 a) | phytotoxicity (growth inhibition level) Rice plants ([4]; 1 g a.i./10 a) | phytotoxicity (growth inhibition level) Rice plants ([4]; 5 g a.i./10 a) | herbicidal efficacy (growth inhibition level) Amaranthus retroflexus ([5]; 5 g a.i./10 a) | herbicidal efficacy (growth inhibition level) Amaranthus retroflexus ([5]; 10 g a.i./10 a) | herbicidal efficacy (growth inhibition level) Chenopodium album ([6]; 5 g a.i./10 a) | herbicidal efficacy (growth inhibition level) Chenopodium album ([6]; 10 g a.i./10 a) | herbicidal efficacy (growth inhibition level) Digitaria ciliaris ([7]; 5 g a.i./10 a) | herbicidal efficacy (growth inhibition level) Digitaria ciliaris ([7]; 10 g a.i./10 a) | herbicidal efficacy (growth inhibition level) Amaranthus retroflexus ([8]; 5 g a.i./10 a) | herbicidal efficacy (growth inhibition level) Amaranthus retroflexus ([8]; 10 g a.i./10 a) | herbicidal efficacy (growth inhibition level) Chenopodium album ([9]; 5 g a.i./10 a) | herbicidal efficacy (growth inhibition level) Chenopodium album ([9]; 10 g a.i./10 a) | herbicidal efficacy (growth inhibition level) Digitaria ciliaris ([10]; 5 g a.i./10 a) | herbicidal efficacy (growth inhibition level) Digitaria ciliaris ([10]; 10 g a.i./10 a) |
| --- | --- | --- | --- | --- | --- | --- | --- | --- | --- | --- | --- | --- | --- | --- | --- | --- | --- | --- | --- | --- |
| C#CCNc1c(C#N)cnn1-c1nn2c(c1Cl)CCCC2 [4.85, 4.156] | 2 (2: 20% to less than 30%) | 3 (3: 30% to less than 40%) | 1 (1: 10% to less than 20%) | 3 (3: 30% to less than 40%) | 0 (0 (exponent): 0% to less than 10% (growth inhibition rate)) | 1 (1: 10% to less than 20%) | 2 (2: 20% to less than 30%) | 2 (2: 20% to less than 30%) | 3 (3: 30% to less than 40%) | 6 (6: 60% to less than 70%) | 4 (4: 40% to less than 50%) | 5 (5: 50% to less than 60%) | 3 (3: 30% to less than 40%) | 4 (4: 40% to less than 50%) | 4 (4: 40% to less than 50%) | 6 (6: 60% to less than 70%) | 5 (5: 50% to less than 60%) | 6 (6: 60% to less than 70%) | 3 (3: 30% to less than 40%) | 5 (5: 50% to less than 60%) |
| CC#CCNc1c(C#N)cnn1-c1nn2c(c1Cl)CCCC2 [4.131, 4.132] | 3 (3: 30% to less than 40%) | 4 (4: 40% to less than 50%) | 0 (0 (exponent): 0% to less than 10% (growth inhibition rate)) | 1 (1: 10% to less than 20%) | 1 (1: 10% to less than 20%) | 3 (3: 30% to less than 40%) | 1 (1: 10% to less than 20%) | 1 (1: 10% to less than 20%) | 4 (4: 40% to less than 50%) | 5 (5: 50% to less than 60%) | 3 (3: 30% to less than 40%) | 4 (4: 40% to less than 50%) | 3 (3: 30% to less than 40%) | 4 (4: 40% to less than 50%) | 4 (4: 40% to less than 50%) | 6 (6: 60% to less than 70%) | 4 (4: 40% to less than 50%) | 5 (5: 50% to less than 60%) | 3 (3: 30% to less than 40%) | 4 (4: 40% to less than 50%) |
